According to the supplement of paper PMC5412046:
Where a name gives a salt, the structure may show the parent alone.

Tests used:
SB.mhdgc-1 = assay: AC50 for growth inhibition (viability) (log10 M); higher = less potent; details: SB.mhdgc-1 (hereditary c.1380delA CDH1 gastric cancer)
How it was run: (§1)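 After 48 h with compound, plates received CellTiter-Glo for 30 min at room temperature and were read for luminescence on a ViewLux. The cells were patient-derived gastric cancer lines of hereditary or sporadic origin, plated at 500 cells in 5 μL medium per 1536 well and pinned with 23 nL compound in DMSO, at 11 threefold dilutions from a final 46 μM. For the log half-maximal activity concentration, DMSO-normalised viability was fitted with four parameters and only high-quality curve classes were kept.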

SB.msgc-1 = assay: as above; details: SB.msgc-1 (sporadic gastric cancer)
How it was run: as §1

Compound | AC50 for growth inhibition (log10 M) (SB.mhdgc-1) | AC50 for growth inhibition (log10 M) (SB.msgc-1)
C[C@H]([C@H]1C\C(=C(CO)/C(=O)O1)C)[C@H]2CC[C@H]3[C@@H]4C[C@H]5O[C@]56[C@@H](O)\C=C/C(=O)[C@]6(C)[C@H]4CC[C@]23C [Withaferin A] | -5.68 | -5.78
CN1CCc2c(c3ccccc3n2Cc2ccc(C(=O)NO)cc2)C1 [Tubastatin A] | -4.63 | -4.68
Cc1ccccc1C(=O)c1ccc(Nc2ccc(Br)cc2N)cc1Cl [EO-1428] | -4.93 | -4.78
N#C/C(=C1/Nc2ccccc2S1)c1ccnc(OCc2ccc(CN3CCOCC3)cc2)n1 | -7.43 | -5.98
NC/1=N/C(=O)N(/C=N1)[C@@H]2O[C@H](CO)[C@@H](O)[C@H]2O [5-Azacitidine] | -4.88 | -5.53
Cc1cccc2c1CC[C@H](CN1CCC(c3c(Cl)cccc3Cl)CC1)C[C@@H]2O | -4.73 | -4.78
COC1=C2C[C@@H](C)C[C@H](OC)[C@H](O)[C@@H](C)/C=C(\C)[C@H](OC(N)=O)[C@@H](OC)/C=C/C=C(\C)C(=O)NC(=CC1=O)C2=O [Geldanamycin] | -6.58 | -6.43
COc1ccc(/C=C\c2cc(OC)c(OC)c(OC)c2)cc1NC(=O)[C@H](N)CO [Ombrabulin] | -7.78 | -8.38
CN(CC(=O)N(Cc1ccc(C2CCCCC2)cc1)c1ccc(C(=O)O)c(O)c1)[S+](=O)([O-])c1c(F)c(F)c(F)c(F)c1F [BP-1-102] | -4.58 | -4.73
Cc1c(O)cccc1C(=O)N[C@@H](CSc1ccccc1)[C@H](O)CN1C[C@H]2CCCC[C@H]2C[C@H]1C(=O)NC(C)(C)C [Viracept] | -4.73 | -4.73
CCOC(=O)N1CCN(/[N+]([O-])=N/Oc2cc(O/N=[N+](\[O-])N3CCN(C(=O)OCC)CC3)c([N+](=O)[O-])cc2[N+](=O)[O-])CC1 [Double JS-K] | -5.03 | -4.63
O=C/1NC(=O)C(=C1C2=CN=C3C=CC=C[N]23)/C4=C[N]5CCN(CC6=C5C4=CC=C6)C(=O)N7CCOCC7 [GSK3 Inhibitor] | -5.93 | -4.63
COc1c(Cl)cc2c([nH]c3cnccc32)c1NC(=O)c1cccnc1C [MLN-120B] | -5.83 | -5.23
CCCCC[C@H](O)/C=C/[C@H]1[C@H](O)CC(=O)[C@@H]1CCCCCCC(=O)O [Alprostadil] | -5.13 | -4.68
Nc1nc(F)nc2c1ncn2[C@@H]1O[C@H](COP(=O)(O)O)[C@@H](O)[C@@H]1O [Fludarabine phosphate] | -5.13 | -4.98
Cc1cnc(Nc2ccc(F)cc2Cl)nc1-c1c[nH]c(C(=O)N[C@H](CO)c2cccc(Cl)c2)c1 | -5.13 | -4.73
N#CCNC(=O)c1ccc(-c2ccnc(Nc3ccc(N4CCOCC4)cc3)n2)cc1 [CYT387] | -4.78 | -4.73
N[S+](=O)([O-])c1ccc(Nc2nc(OCC3CCCCC3)c3[nH]cnc3n2)cc1 [NU-6102] | -4.68 | -4.83
CCCCc1oc2ccc(NS(C)(=O)=O)cc2c1C(=O)c1ccc(OCCCN(CCCC)CCCC)cc1 [Dronedarone] | -4.73 | -4.63
COC1=CC2=C(C=C1OC)[C@H]3[C@@H](CO2)OC4=C(C=CC5=C4\C=C/C(C)(C)O5)C3=O [Deguelin] | -5.38 | -5.23
CCOC(=O)\C1=C(/C)N\C2=C(C1C3=CC=C(C=C3)C4=CC=CC=C4)\C(=O)CC(C)(C)C2 (configuration not stated) [ITD-1] | -4.83 | -4.73
C[C@H]1CN(C[C@@H](C)O1)CC(=O)NC2=CC=C3SC4=C(CC3=C2)C=CC=C4\C5=C\C(=O)\C=C(/O5)N6CCOCC6 | -5.23 | -5.28
CN(c1ncccc1CNc1nc(Nc2ccc3c(c2)CC(=O)N3)ncc1C(F)(F)F)[S+](C)(=O)[O-] | -5.18 | -5.13
CC1=CC2=C(O1)C(=C3OC(=O)\C=C(C)/C3=C2)C [Trioxsalen] | -5.38 | -4.93
C=C1/C(=C\C=C2/CCC[C@]3(C)[C@@H]([C@H](C)CCCC(C)(C)O)CC[C@@H]23)C[C@@H](O)C[C@@H]1O [Calcitriol] | -6.53 | -5.63
CCC1=C2CN3C(=O)\C4=C(/C=C3/C2=NC5=CC=C(O)C=C15)[C@@](O)(CC)C(=O)OC4 [SN-38] | -8.48 | -8.08

Compound | AC50 for growth inhibition (log10 M) (SB.mhdgc-1) | AC50 for growth inhibition (log10 M) (SB.msgc-1)
COC1=C(CC=C(C)C)C2=C(\C=C/C(=O)O2)C=C1 [Osthol] | -5.78 | -5.53
CN(C)Cc1cccc(N/C(=C2\C(=O)Nc3cc(C(=O)N(C)C)ccc32)c2ccccc2)c1 | -5.48 | -5.23
CC(C)(C)c1[nH]cnc1/C=c1\[nH]c(=O)/c(=C/c2ccccc2)[nH]c1=O [Plinabulin] | -7.62 | -6.07
COc1ccc2[nH]cc(CCNC(C)=O)c2c1 [Melatonin] | -5.33 | -5.83
O=C1\C=C/C=C2/[C@H]3CNC[C@H](C3)CN12 [Cytisine] | -6.03 | -4.83
FC(F)(F)c1ccc(/C=C/c2nc(COc3ccc(CCCCn4ccnn4)cc3)co2)cc1 [Mubritinib] | -6.78 | -7.83
CCC(=O)N1CCN(CC1)C2=C(C=C(C=C2)N3C(=O)\C=C/C4=C3C5=CC(=CC=C5N=C4)C6=CN=C7C=CC=CC7=C6)C(F)(F)F [Torin-1] | -6.63 | -5.13
COC1=CC=C(C=N1)C/2=C/C3=C(C)N=C(N)N=C3N(C4CCC(CC4)OCCO)C2=O (configuration not stated) | -7.88 | -7.18
CCC(=C/[C@H](C)C/C=C/C(C)=C/[C@@H](C)C(=O)[C@@H](C)[C@H](O)[C@@H](C)C/C(C)=C/C(=O)O)/C=C/[C@@H]1OC(=O)C=C[C@@H]1C [Elactocin] | -7.66 | -7.06
CN(C)c1ccc2cc(C(=O)N[C@@H](CCCNC(=N)CCl)C(=O)NCc3ccccc3)ccc2c1 [YW3-56] | -4.78 | -5.03
OC[C@H]1O[C@@H]2[C@@H](OC\3=N\C(=N)\C=C/[N@@]23)[C@@H]1O [Cyclocytidine HCl] | -6.13 | -5.43
O=C(Nc1ccc([N+](=O)[O-])cc1Cl)c1cc(Cl)ccc1O [Niclosamide] | -5.88 | -5.38
CN(C)c1ccc(C(=O)NCCCCCCC(=O)NO)cc1 [M344] | -5.83 | -6.08
C[C@H]1C[C@@H]2[C@H](CC[C@@]3(C)[C@H]2CC[C@]3(OC(C)=O)C(C)=O)[C@@]\4(C)CCC(=O)\C=C14 [Medroxyprogesterone acetate] | -5.23 | -4.83
NC(=O)N1CCC(CC(=O)N2CCC([C@H]3c4ncc(Br)cc4CCc4cc(Cl)cc(Br)c43)CC2)CC1 [Lonafarnib] | -4.78 | -4.78
CNC1CCC(N(Cc2cccc(-c3ccncc3)c2)C(=O)c2sc3ccccc3c2Cl)CC1 (configuration not stated) [SAG] | -4.93 | -4.88
CCOC(=O)N1CCN(/[N+]([O-])=N/Oc2ccc([N+](=O)[O-])cc2C#N)CC1 [JS-59-4] | -4.78 | -5.13
C[C@]12Cc3cn[nH]c3C[C@@H]1CC[C@@H]1[C@@H]2CC[C@@]2(C)[C@H]1CC[C@]2(C)O [Stanozolol] | -5.98 | -5.63
CCCCCCNC(=O)N1\C=C(F)/C(=O)NC1=O [Carmofur] | -6.33 | -5.48
CCN(CC)C(=S)SSC(=S)N(CC)CC [Disulfiram] | -7.78 | -7.28
O=C(CCc1ccc(O)cc1)c1c(O)cc(O)cc1O [Phloretin] | -7.33 | -7.13
C[C@H]1[C@@H](CC(C[C@H]2O[C@@H]3O[C@]4(C)CC[C@H]5[C@H](C)CC[C@@H]([C@H]2C)[C@@]35OO4)C[S+](=O)([O-])c2ccc(COC(=O)N(C)C)cc2)O[C@@H]2O[C@]3(C)CC[C@H]4[C@H](C)CC[C@@H]1[C@@]24OO3 [ASR-isobudimer-SO2Ph-4-CH2OC(O)NMe2] | -6.93 | -6.48
O=C(Nc1nc2ccccc2n1CCN1CCOCC1)c1cccc([N+](=O)[O-])c1 | -4.83 | -4.83
COc1ncc(-c2ccc3nccc(-c4ccnnc4)c3c2)cc1N[S+](=O)([O-])c1ccc(F)cc1F | -7.38 | -5.93
Nc1nnc(-c2cccc(Cl)c2Cl)c(N)n1 [Lamotrigine] | -4.53 | -4.63
